Laboratory results published in patent US12570655B2, “Cysteine covalent modifiers of AKT1 and uses thereof” (Terremoto Biosciences, Inc., priority 2023, dated 2026).
Read-outs that look alike come from different tables or passages of the source.

What was measured:
Type in all cases: cell-based
[1] = tested on: LAPC4 prostate cancer cells; assay: Antiproliferative effects in LAPC4 cells (CellTiter Glo); conditions: LAPC4 cells (AKT1 E17K allele), read-out: LAPC4 proliferation IC50
Experimental: Antiproliferative Effects in LAPC4 Cells.
LAPC4 prostate cancer cells (Klein, K. A. et al. Nat Med 1997, 3, 402-408), which express the AKT1 E17K allele, were grown in IMDM media (Hyclone) supplemented with 12% FBS+1% P/S. To assess compound effects on growth, 1,000 cells/well were seeded in 384 well assay plates, incubated with compound dilutions dissolved in DMSO. After 72 h, intracellular ATP content was assessed with CellTiter Glo reagent (Promega) according to the manufacturer's instructions. IC50 values were calculated by fitting luminescence values to a log(inhibitor) vs. response Hill equation.

[2] = molecular target: T1, AKT1 E17K (Homo sapiens, UniProt P31749, E17K); assay: Live cell AKT1 E17K target engagement by NanoBRET competitive probe displacement; conditions: HEK293 cells transfected with kinase-NanoLuciferase fusion, 2 h at 37° C.
T1 construct: expressed in transfected cells; host or cells: HEK293
Experimental: (§1) Determining Live Cell AKT1 E17K, AKT1 WT, and AKT2 Target Engagement by NanoBRET Competitive Probe Displacement.
(§2) Live cell target engagement assays were performed as described (Vasta, J. D. et al. Cell Chem Biol 2018, 25(11), 206-214). Briefly, HEK293 cells were transfected with plasmids encoding kinase-NanoLuciferase fusion proteins overnight. Cells were then treated with serial dilutions of compound and an ˜EC50 concentration of fluorescently-tagged ATP-competitive tracer (Promega). After incubation for 2 h at 37° C., luciferase substrate and extracellular luciferase inhibitor were added to all wells, and luminescent intensity at 460 nm and 600 nm were measured on a multimode plate-reader. The ratio of E600/E460 was calculated to give the tracer engagement signal (BRET). IC50 values were calculated by fitting BRET values to a log(inhibitor) vs. response Hill equation.

[3] = molecular target: T2, AKT1 WT (Homo sapiens, UniProt P31749); assay: Live cell AKT1 WT target engagement by NanoBRET competitive probe displacement; conditions: HEK293 cells transfected with kinase-NanoLuciferase fusion, 2 h at 37° C.
T2 construct: expressed in transfected cells; host or cells: HEK293
Experimental: as §1, §2

T1 sequence (P31749 whole entry E17K, the tested form may be a part): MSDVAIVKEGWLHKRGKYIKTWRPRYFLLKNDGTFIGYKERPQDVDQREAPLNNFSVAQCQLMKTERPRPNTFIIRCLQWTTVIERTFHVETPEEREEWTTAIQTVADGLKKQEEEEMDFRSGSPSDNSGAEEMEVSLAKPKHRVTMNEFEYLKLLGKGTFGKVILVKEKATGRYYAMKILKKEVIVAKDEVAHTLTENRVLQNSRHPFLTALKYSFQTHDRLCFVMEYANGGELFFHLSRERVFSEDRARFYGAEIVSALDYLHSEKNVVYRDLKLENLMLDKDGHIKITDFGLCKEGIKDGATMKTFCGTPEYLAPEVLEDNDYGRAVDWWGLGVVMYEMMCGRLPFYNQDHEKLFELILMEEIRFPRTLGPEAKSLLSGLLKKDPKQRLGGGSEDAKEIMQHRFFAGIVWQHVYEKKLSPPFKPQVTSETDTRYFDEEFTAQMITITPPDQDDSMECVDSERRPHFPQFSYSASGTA
T2 sequence (P31749 whole entry, the tested form may be a part): as the sequence (P31749 whole entry E17K, the tested form may be a part) above, with K17E counted along it

Structure (SMILES)	IC50 ([1]; 72 h)	IC50 [2]	IC50 [3]	IC50 ([1]; Homo sapiens, LAPC4, 72 h)
C=CC(=O)N1C[C@@H]2[C@H](C1)[C@H]2NC1CCc2cc(-n3c(-c4cccnc4N)nc4ccc(-n5cccn5)nc43)ccc21 (single isomer, unassigned) [Example 347, 1-((1R,5S,6s)-6-(((*)-5-(2-(2-aminopyridin-3-yl)-5-(1H-pyrazol-1-yl)-3H-imidazo[4,5-b]pyridin-3-yl)-2,3-dihydro-1H-inden-1-yl)amino)-3-azabicyclo[3.1.0]hexan-3-yl)prop-2-en-1-one]		0.234 µM	2.21 µM	
C=CC(=O)N1CCC(N[C@H]2CCc3cc(-n4c(-c5cccnc5N)nc5cc(-c6cccnc6)cnc54)ccc32)CC1 [Example 190, (S)-1-(4-((5-(2-(2-aminopyridin-3-yl)-6-(pyridin-3-yl)-3H-imidazo[4,5-b]pyridin-3-yl)-2,3-dihydro-1H-inden-1-yl)amino)piperidin-1-yl)prop-2-en-1-one]		0.0994 µM	0.735 µM	1.32 µM
C=CC(=O)N1CCC(N[C@H]2CCc3cc(-n4c(-c5cccnc5N)nc5ccc(-n6cccn6)nc54)ccc32)C[C@@H]1C(F)F (single isomer, unassigned) [Example 212, 1-((2R,4*)-4-(((S)-5-(2-(2-aminopyridin-3-yl)-5-(1H-pyrazol-1-yl)-3H-imidazo[4,5-b]pyridin-3-yl)-2,3-dihydro-1H-inden-1-yl)amino)-2-(difluoromethyl)piperidin-1-yl)prop-2-en-1-one]	0.0366 µM	0.0069 µM	0.0361 µM	
C=CC(=O)N1CCC(N[C@H]2CCc3cc(-n4c(-c5cccnc5N)nc5cc(-c6ccccn6)cnc54)ccc32)CC1 [Example 269, 1-(4-{[(1S)-5-[2-(2-aminopyridin-3-yl)-6-(pyridin-2-yl)imidazo[4,5-b]pyridin-3-yl]-2,3-dihydro-1H-inden-1-yl]amino}piperidin-1-yl)prop-2-en-1-one]		0.247 µM	2.12 µM	5.39 µM
C=CC(=O)N1CCC(N[C@H]2CCc3cc(-n4c(-c5cccnc5N)nc5ccc(-n6cccn6)nc54)ccc32)C[C@H]1C(F)F (single isomer, unassigned) [Example 214, 1-((2S,4*)-4-(((S)-5-(2-(2-aminopyridin-3-yl)-5-(1H-pyrazol-1-yl)-3H-imidazo[4,5-b]pyridin-3-yl)-2,3-dihydro-1H-inden-1-yl)amino)-2-(difluoromethyl)piperidin-1-yl)prop-2-en-1-one]		0.00472 µM	0.0365 µM	0.0267 µM
C=CC(=O)N1CCC(N[C@@H]2c3ccc(-n4c(-c5ccccc5F)nc5ccc(-n6cccn6)nc54)cc3CC2F)CC1 (single isomer, unassigned) [Example 299, 1-(4-(((1R,2*)-2-fluoro-5-(2-(2-fluorophenyl)-5-(1H-pyrazol-1-yl)-3H-imidazo[4,5-b]pyridin-3-yl)-2,3-dihydro-1H-inden-1-yl)amino)piperidin-1-yl)prop-2-en-1-one]		0.00932 µM	1.18 µM	0.603 µM
C=CC(=O)N1CCC(N[C@H]2CCc3cc(-n4c(-c5cccnc5N)nc5ccc(-n6cccn6)nc54)ccc32)CC1CC#N (single isomer, unassigned) [Example 338, 2-((2*,4*)-1-acryloyl-4-(((S)-5-(2-(2-aminopyridin-3-yl)-5-(1H-pyrazol-1-yl)-3H-imidazo[4,5-b]pyridin-3-yl)-2,3-dihydro-1H-inden-1-yl)amino)piperidin-2-yl)acetonitrile]		0.0123 µM	0.108 µM	

More lines, in order of falling IC50 [2], values ahead:

IC50 ([1]; 72 h)	IC50 [2]	IC50 [3]	IC50 ([1]; Homo sapiens, LAPC4, 72 h)	Structure (SMILES)
	0.444 µM	2.77 µM		C=CC(=O)N1C[C@@H]2[C@H](C1)[C@H]2NC1CCc2cc(-n3c(-c4cccnc4N)nc4ccc(-n5cccn5)nc43)ccc21 (single isomer, unassigned) [Example 346, 1-((1R,5S,6s)-6-(((*)-5-(2-(2-aminopyridin-3-yl)-5-(1H-pyrazol-1-yl)-3H-imidazo[4,5-b]pyridin-3-yl)-2,3-dihydro-1H-inden-1-yl)amino)-3-azabicyclo[3.1.0]hexan-3-yl)prop-2-en-1-one]
	0.321 µM	1.87 µM	3.47 µM	C=CC(=O)N1CCC(N[C@H]2CCc3cc(-n4c(-c5cccnc5N)nc5cc(-n6cccn6)cnc54)ccc32)CC1 [Example 217, 1-(4-{[(1S)-5-[2-(2-aminopyridin-3-yl)-6-(pyrazol-1-yl)imidazo[4,5-b]pyridin-3-yl]-2,3-dihydro-1H-inden-1-yl]amino}piperidin-1-yl)prop-2-en-1-one]
	0.221 µM	1.25 µM	3.37 µM	C=CC(=O)N1CCC(N[C@H]2CCc3cc(-n4c(-c5cccnc5N)nc5cc(-c6ccncc6)cnc54)ccc32)CC1 [Example 191, (S)-1-(4-((5-(2-(2-aminopyridin-3-yl)-6-(pyridin-4-yl)-3H-imidazo[4,5-b]pyridin-3-yl)-2,3-dihydro-1H-inden-1-yl)amino)piperidin-1-yl)prop-2-en-1-one]
3.52 µM	0.203 µM	2.89 µM		C=CC(=O)N1CCN(N(C)C2CCc3cc(-n4c(-c5cccnc5N)nc5ccc(-n6cccn6)nc54)ccc32)CC1 (single isomer, unassigned) [Example 179, 1-(4-{[(1*)-5-[2-(2-aminopyridin-3-yl)-5-(pyrazol-1-yl)imidazo[4,5-b]pyridin-3-yl]-2,3-dihydro-1H-inden-1-yl](methyl)amino}piperazin-1-yl)prop-2-en-1-one]
	0.111 µM		3.09 µM	C=CC(=O)N1CCC(N[C@@H]2c3ccc(-n4c(-c5cccnc5N)nc5ccc(C6CC6)nc54)cc3CC2F)CC1 (single isomer, unassigned) [Example 202, 1-(4-(((1R,2*)-5-(2-(2-aminopyridin-3-yl)-5-cyclopropyl-3H-imidazo[4,5-b]pyridin-3-yl)-2-fluoro-2,3-dihydro-1H-inden-1-yl)amino)piperidin-1-yl)prop-2-en-1-one]
	0.0966 µM	1.99 µM	1.21 µM	C=CC(=O)N1CCC(NC2CCc3cc(-n4c(-c5cccnc5N)nc5ccc(C(F)F)nc54)ccc32)CC1 (stereo in doubt) [Example 196, 1-(4-{[(1R)-5-[2-(2-aminopyridin-3-yl)-5-(difluoromethyl)imidazo[4,5-b]pyridin-3-yl]-?3-dihydro-1H-inden-1-yl]amino}piperidin-1-yl)prop-2-en-1-one]
	0.0126 µM	0.0515 µM	0.0658 µM	C=CC(=O)N1CCc2cccc(C(=O)N[C@H]3CCc4cc(-n5c(-c6cccnc6N)nc6ccc(-n7cccn7)nc65)ccc43)c2C1 [Example 235, (S)-2-acryloyl-N-(5-(2-(2-aminopyridin-3-yl)-5-(1H-pyrazol-1-yl)-3H-imidazo[4,5-b]pyridin-3-yl)-2,3-dihydro-1H-inden-1-yl)-1,2,3,4-tetrahydroisoquinoline-8-carboxamide]
	0.00937 µM	0.0235 µM	0.0179 µM	C=CC(=O)N1CCC(N[C@@H]2CCc3cc(-n4c(-c5cccnc5N)nc5ccc(-n6cccn6)nc54)ccc3C2)CC1 [Example 295, 1-(4-{[(2R)-6-[2-(2-aminopyridin-3-yl)-5-(pyrazol-1-yl)imidazo[4,5-b]pyridin-3-yl]-1,2,3,4-tetrahydronaphthalen-2-yl]amino}piperidin-1-yl)prop-2-en-1-one]
0.172 µM	0.00886 µM	0.105 µM		C=CC(=O)N1CCC(N[C@@H]2c3ccc(-n4c(-c5cccnc5N)nc5ccc(-n6cccn6)nc54)cc3CC2F)CC1C(F)F (single isomer, unassigned) [Example 301, 1-((2*,4*)-4-(((1R,2*)-5-(2-(2-aminopyridin-3-yl)-5-(1H-pyrazol-1-yl)-3H-imidazo[4,5-b]pyridin-3-yl)-2-fluoro-2,3-dihydro-1H-inden-1-yl)amino)-2-(difluoromethyl)piperidin-1-yl)prop-2-en-1-one]
	0.00685 µM	0.0449 µM	0.134 µM	C=CC(=O)N1CCN(CC2CCc3cc(-n4c(-c5cccnc5N)nc5ccc(-n6cccn6)nc54)ccc32)C[C@H]1C (single isomer, unassigned) [Example 292, 1-((R)-4-(((*)-5-(2-(2-aminopyridin-3-yl)-5-(1H-pyrazol-1-yl)-3H-imidazo[4,5-b]pyridin-3-yl)-2,3-dihydro-1H-inden-1-yl)methyl)-2-methylpiperazin-1-yl)prop-2-en-1-one]
	0.00433 µM	0.0285 µM		C=CC(=O)N1CCC(NC2c3ccc(-n4c(-c5cccnc5N)nc5ccc(-n6ccc(C7CC7)n6)nc54)cc3CC2F)CC1C(F)F (single isomer, unassigned) [Example 333, 1-((2*,4*)-4-(((1*,2*)-5-(2-(2-aminopyridin-3-yl)-5-(3-cyclopropyl-H-pyrazol-1-yl)-3H-imidazo[4,5-b]pyridin-3-yl)-2-fluoro-2,3-dihydro-1H-inden-1-yl)amino)-2-(difluoromethyl)piperidin-1-yl)prop-2-en-1-one]
